Values belong to the substance of their own block, whether it stands above or below them.
What was measured:
[1] = biological target: T1, CXCR4 (Homo sapiens, UniProt P61073); assay: Conventional cell migration assay, SDF-1α dose response (determining inhibitory concentration); assay type: cell-based; conditions: CXCR4-bearing activated lymphocytes, 150 minutes
T1 construct: endogenous in cells
Procedure: To obtain a dose response curve for activated lymphocytes expressing cell surface CXCR4, a conventional cell migration assay was used (Bacon et al., 1988; Penfold et al., 1999). The activated lymphocytes were prepared by culturing lymphocytes in the presence of interleukin-2 (IL-2) and phytohemeagglutinin (PHA). To isolate peripheral blood lymphocytes (i.e., a thin layer of white blood cells called the buffy coat), blood samples from the Stanford blood center were centrifuged for 10 minutes at 1200 rpm leaving a concentrated fraction containing predominantly white blood cellular fraction. Next, peripheral blood mononuclear cells (PBMC) were prepared by the standard Ficoll-Pague (Amersham Biosciences) gradient centrifugation method. Following the centrifugation, PBMC were removed and resuspended in MACS (Dulbecco's Phosphate Buffered Saline, DPBS; 1% Bovine Serum Albumin, BSA) buffer. After removal of the PMBCs, the monocytes were separated by a CD14 positive selection column mounted on an AutoMac (Multenyi Biotech). […]
The CXCR4 ligand stromal-derived factor (SDF-1α) was prepared in a concentration series (0.1 nM to […]) by serial dilution in cell migration buffer. […] The cells that migrated to the lower chamber were quantified by the CyQuant assay (Molecular Probes; Eugene, Oreg.), a fluorescent dye method that measures nucleic acid content. […]

[2] = biological target: T2, CCR2 (Homo sapiens, UniProt P41597); assay: Conventional cell migration assay, MCP-1 dose response in THP-1 cells; assay type: cell-based; conditions: 90 minutes, FIG. 10
T2 construct: THP-1 cells expressing cell surface CCR1 and CCR2; host or cells: THP-1 (human monocytic)
T2 sequence (P41597 1-360 isoform P41597-2): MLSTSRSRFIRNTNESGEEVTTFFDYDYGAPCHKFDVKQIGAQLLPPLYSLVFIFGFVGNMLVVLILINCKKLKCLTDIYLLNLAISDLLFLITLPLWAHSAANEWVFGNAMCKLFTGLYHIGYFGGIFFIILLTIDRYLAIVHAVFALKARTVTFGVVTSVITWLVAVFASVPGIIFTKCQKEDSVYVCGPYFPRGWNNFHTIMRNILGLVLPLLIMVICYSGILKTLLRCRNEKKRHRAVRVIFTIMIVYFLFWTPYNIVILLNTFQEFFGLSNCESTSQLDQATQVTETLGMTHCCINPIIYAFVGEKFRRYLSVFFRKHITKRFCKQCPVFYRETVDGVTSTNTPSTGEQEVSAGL
Procedure: (§1) To obtain a dose response curve for THP-1 cells expressing cell surface CCR1 and CCR2, a conventional cell migration assay was used (Bacon et al., 1988; Penfold et al., 1999). Cells were harvested by centrifugation and then resuspended in cell migration buffer (Hank's balanced salt solution (HBSS)/0.1% bovine serum albumin (BSA)) at 0.1×10^6 cells per well. The CCR1 and CCR2 ligands MIP-1α and MCP-1, respectively, were prepared in the concentration series (10 nM to 10 μM) by serial dilution in cell migration buffer. At low concentrations, MIP-1α and MCP-1 activate cell migration of CCR1 and CCR2 bearing activated cells, respectively.
(§2) MIP-1α and MCP-1 were loaded in the bottom chamber of a ChemoTx® cell migration apparatus (5 μm pore polycarbonate polyvinylpyrrolidone-coated filters (Neuroprobe; Gaithersburg, Md.); 29 μl/well) and 20 μl of cell suspension (100K cell per well) was placed in the upper chamber. The cells were incubated at 37° C. for 90 minutes. The assay was terminated by removing the cells from the upper chamber and membrane surface using a rubber scraper. The cells that migrated to the lower chamber were quantified by CyQuant assay (Molecular Probes; Eugene, Oreg.), a fluorescent dye method that measures nucleic acid content. […]

[3] = system: THP-1 cells; assay: Effect of full RAM concentration of MCP-1 on MIP-1α-induced migration; assay type: cell-based, human; conditions: 100 nM MCP-1, THP-1 cells, FIG. 11B
Procedure: An effect of 100 nM of MCP-1 on MIP-1α was studied by comparing migration levels of THP-1 cells as activated by MIP-1α with THP-1 cell migration levels as activated by incubation with MIP-1α and 100 nM MCP-1.
(§3) 100 nM MCP-1 with MIP-1α at various concentrations were loaded in the bottom chamber of a ChemoTx® cell migration apparatus (5 μm pore polycarbonate polyvinylpyrrolidone-coated filters (Neuroprobe; Gaithersburg, Md.); 29 μl/well) and 20 μl of cell suspension (100K cell per well) was placed in the upper chamber. The cells were incubated at 37° C. for 90 minutes. The assay was terminated by removing the cells from the upper chamber and membrane surface using a rubber scraper. The cells that migrated to the lower chamber were quantified by CyQuant assay (Molecular Probes; Eugene, Oreg.), a fluorescent dye method that measures nucleic acid content.

[4] = biological target: T3, CCR1 (Homo sapiens, UniProt P32246); assay: Conventional cell migration assay, MIP-1α dose response in THP-1 cells; assay type: cell-based; conditions: 90 minutes, FIG. 10
T3 construct: THP-1 cells expressing cell surface CCR1 and CCR2; host or cells: THP-1 (human monocytic)
T3 sequence (P32246 1-355): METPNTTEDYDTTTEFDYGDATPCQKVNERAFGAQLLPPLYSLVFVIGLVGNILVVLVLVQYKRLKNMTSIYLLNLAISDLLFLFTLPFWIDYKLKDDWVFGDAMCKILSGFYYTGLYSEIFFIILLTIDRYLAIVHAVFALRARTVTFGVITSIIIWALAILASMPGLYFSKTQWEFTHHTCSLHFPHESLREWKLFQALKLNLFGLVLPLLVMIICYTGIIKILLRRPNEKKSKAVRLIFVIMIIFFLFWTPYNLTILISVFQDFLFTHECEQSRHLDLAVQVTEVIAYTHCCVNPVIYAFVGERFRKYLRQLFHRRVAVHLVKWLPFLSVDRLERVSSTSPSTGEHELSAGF
Procedure: as §1, §2

[5] = system: THP-1 cells; assay: Effect of full RAM concentration of MIP-1α on MCP-1-induced migration; assay type: cell-based, human; conditions: 100 nM MIP-1α, FIG. 11A
Procedure: An effect of 100 nM of MIP-1α on MCP-1 was studied by comparing migration levels of THP-1 cells as activated by MCP-1 with THP-1 cell migration levels as activated by incubation with MCP-1 and 100 nM MIP-1α.
as §3, with “nM MIP-1α with” for “nM”, “MCP-1” for “MCP-1 with MIP-1α”

T1 sequence (P61073 whole entry): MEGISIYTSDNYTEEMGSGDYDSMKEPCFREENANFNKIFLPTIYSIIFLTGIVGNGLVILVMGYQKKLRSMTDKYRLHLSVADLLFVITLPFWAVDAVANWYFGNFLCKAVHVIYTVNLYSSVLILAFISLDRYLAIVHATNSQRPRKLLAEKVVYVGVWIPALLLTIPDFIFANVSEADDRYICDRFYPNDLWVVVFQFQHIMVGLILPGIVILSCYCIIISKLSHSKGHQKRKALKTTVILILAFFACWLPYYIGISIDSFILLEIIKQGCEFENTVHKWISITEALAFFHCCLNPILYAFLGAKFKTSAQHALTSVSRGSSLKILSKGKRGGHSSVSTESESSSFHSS

concentration determined to be completely inhibitory for cell migration [1]: 1 µM
Substance: SDF-1α

concentration determined to be completely inhibitory for cell migration [2]: 150 nM
Substance: MCP-1: CCR2 ligand, chemokine purchased from PeproTech
effect on MIP-1α-induced cell migration [3]: no significant effect

concentration determined to be completely inhibitory for cell migration [4]: 150 nM
Substance: MIP-1α: CCR1 ligand, chemokine purchased from PeproTech
effect on MCP-1-induced cell migration [5]: no significant effect

— US7468253B2, “Method for multiple chemokine receptor screening for antagonists using RAM assay” (Chemocentryx, Inc., priority 2001, dated 2008)
